The values that follow come from patent publication US8980226B2, “Aerosolized fosfomycin/aminoglycoside combination for the treatment of bacterial respiratory infections” (Gilead Sciences, Inc., priority 2004, dated 2015).

Molecules are shown by their SMILES. Read-outs that look alike come from different tables or passages of the source. Where only a bound is given, the exact number is not on record here.

Holding throughout (type): cell-based
The test system of one test is E. coli ATCC 25922. Description: MBC/MIC, broth microdilution. As to the method: (§1) “Minimal bactericidal concentration (MBC)” means the lowest concentration of antibiotic that results in ≧3 Log10 of bacterial killing.
(§2) The MICs of amikacin, arbekacin, dibekacin, gentamicin, kanamycin, netilimicin, neomycin, streptomycin, and tobramycin alone were determined for P. aeruginosa ATCC 27853 by the broth-microdilution method according to NCCLS standards (NCCLS, 2003). E. coli ATCC 25922 and S. aureus ATCC 29213 were used as quality control stains. Bacterial strains were streaked onto blood agar plates, and incubated at 35° C. for 18 hours. Two to three bacterial colonies from the overnight cultures were inoculated into 3 mL of sterile normal saline, vortexed briefly, and adjusted to a 0.5 McFarland standard (NCCLS, 2003). The bacterial suspension was diluted 1:100 in cation-adjusted Mueller-Hinton broth (hereafter referred to as CAMHB). Fifty microliters of bacterial inoculum (approximately 2×10^5 CFU/mL) was pipeted into individual wells of 96-well plates containing 50 μl of CAMHB (Remel, Lenexa, Kanas) supplemented with 2-fold dilutions of antibiotics ranging in concentration from 0.125 μg/mL to 128 μg/mL. The MIC was defined as the lowest concentration of antibiotic (s) that prevented visible growth after incubation at 35° C. for 18-24 hours.
(§3) The MBCs of fosfomycin, amikacin, arbekacin, dibikacin, gentamicin, kanamycin B, netilimicin, neomycin, streptomycin, or tobramycin alone for P. aeruginosa ATCC 27853, E. coli ATCC 25922, and S. aureus ATCC 29213 were determined by the broth microdilution method according to NCCLS standards (NCCLS, 1999). Bacterial strains were streaked onto blood agar plates and incubated at 35° C. for 18-24 hours. Two to three bacterial colonies from the overnight cultures were inoculated into 3 mL of sterile normal saline, vortexed briefly, and adjusted to a 0.5 McFarland standard (NCCLS, 2003). Fifty microliters of bacterial inoculum (approximately 2×10^5 CFU/mL) was pipeted into individual wells of 96-well plates containing 50 μl of CAMHB (Remel, Lenexa, Kanas) supplemented with 2-fold dilutions of antibiotics ranging in concentration from 0.125 μg/mL to 128 μg/mL. Plates were incubated at 35° C. for 18-24 hours and MIC determined as described in Example 5, Method C. The contents of wells showing no growth (MIC and above) were mixed with a pipetor and duplicate 10 μl samples spread onto blood agar plates. Culture plates were incubated at 35° C. for 18-24 hours and the number of bacterial colonies on each plate enumerated manually. Rejection values were determined by NCCLS methods which considers the final inoculum size, single or double sampling, pipetting error, and the Poisson distribution of sample responses (NCCLS, 1999). […] The MBC was defined as the ≧3 Log10 decrease in CFU/mL of the original inoculum as described by NCCLS standards (NCCLS, 1999). The MBC/MIC ratios were calculated by dividing the MBC by the MIC.

For test [1], the system named is P. aeruginosa ATCC 27853. Description: MBC/MIC, broth microdilution. As to the method: as §1, §2, §3
For orientation: Broth dilution looks for growth in wells or tubes with falling amounts of substance.

Another test has as its system S. aureus ATCC 29213. The test is described as follows: MBC/MIC, broth microdilution. As to the method: as §1, §2, §3
Test [2] relates to P. aeruginosa ATCC 27853. The test is described as follows: Time-kill kinetics in the presence of 2% porcine gastric mucin. To be noted: for killing in time-kill curves / Time to reach bactericidal killing, antibiotic alone: P. aeruginosa ATCC 27853; for killing in time-kill curves: FIGS. 1-7, fosfomycin and tobramycin alone as comparators of the combination; for Time to reach bactericidal killing, antibiotic alone: single antibiotic, 32 μg/mL. The method, then: Two to three bacterial colonies were inoculated into 10 mL CAMHB and incubated at 35° C. in a shaking water bath (250 rpm) for 18-24 hours. […] The resulting culture was adjusted to a 0.5 McFarland standard (NCCLS, 2003). […] Ten milliliter aliquots were then pipeted into 50 mL conical tubes. […] The killing activity of fosfomycin plus amikacin, arbekacin, dibikacin, gentamicin, kanamycin, […], neomycin, streptomycin, or tobramycin were also compared to the killing activity of their individual components alone. […] A no drug control was run in each experiment. Cultures were incubated with antibiotic at 35° C. in a shaking (250 rpm) water bath for 24 hours. […] Culture plates were incubated at 35° C. for 18-24 hours and the number of colonies enumerated manually. The limit of detection for the colony counting method was 1 Log10). Time-kill curves were constructed by plotting the Log10 number of CFU/mL culture versus time.

A further test concerns P. aeruginosa. The following applies: for Frequency of Resistance: plates with 128 μg/mL fosfomycin, 8 μg/mL tobramycin, or both. As to the method: The frequency of single-step spontaneous resistance mutation was determined for 5 susceptible P. aeruginosa strains. The bacterial inoculum was prepared by inoculating 5 mL of CAMHB with 2-3 bacterial colonies and incubating at 35° C. in a shaking water bath (250 rpm) for 18 h. A 1:20 dilution of the overnight culture was made into 50 mL of fresh CAMHB in a 125 ml erlenmyer flask and incubated at 35° C. in a shaking waterbath (250 rpm) for 8 hours. Cultures were centrifuged at 2,500 rpm, room temperature, for 20 min. The supernatant was decanted off and the cell pellet from the 50 mL of culture resuspended in 500 μl-1000 μl CAMHB. The CFU/mL in the bacterial suspension was determined by making 10-fold serial dilutions in sterile normal saline, and spreading 100 μl aliquots on blood agar plates. Culture plates were incubated at 35° C. for 18-24 hours and the number of colonies enumerated manually. One hundred microliters of bacterial cell suspension (approximately 10^9 CFU) was spread onto MHA plates containing 128 μg/mL of fosfomycin, 8 μg/mL of tobramycin, or 128 μg/mL of fosfomycin plus 8 μg/mL of tobramycin. The culture plates were incubated at 35° C. for 48-72 hours and the number of colonies on each plate was enumerated manually. The frequency of resistance was calculated by dividing the number of bacteria growing at the defined antibiotic concentration by the number of bacteria in the original inoculum. Representative mutants were evaluated for changes in MIC to fosfomycin alone, tobramycin alone, and fosfomycin plus tobramycin combinations as described in Example 5, Method A.

[3] abbreviates: mutants of P. aeruginosa ATCC 27853.
Where [4] appears, read: mutants of P. aeruginosa COR-002.
[5] abbreviates: mutants of P. aeruginosa COR-003.
Where [6] appears, read: mutants of P. aeruginosa COR-013.
Setting [7] is: mutants of P. aeruginosa COR-014.

Regarding `NC[C@H]1O[C@H](O[C@H]2[C@H](O)[C@@H](O[C@H]3O[C@H](CO)[C@@H](O)[C@H](N)[C@H]3O)[C@H](N)C[C@@H]2N)[C@H](N)C[C@@H]1O` [Tobramycin], the “MBC/MIC E. coli” value against E. coli ATCC 25922 is 1. In addition, in the test on P. aeruginosa ATCC 27853 [1], the “MBC/MIC P. aeruginosa” value worked out at 1. In addition, in the test with P. aeruginosa ATCC 27853 [1] (aminoglycoside alone), the “MBC/MIC Aminoglycoside” value stood at 1. In addition, the “MBC/MIC S. aureus” value in the test on S. aureus ATCC 29213 was found to be 8. Besides, the “rank of killing activity, combinations and tobramycin alone compared” value with P. aeruginosa ATCC 27853 [2] (16 ug/mL, FIGS. 8 and 9) is “most active antibiotic”. Besides, the “killing in time-kill curves” value in the test on P. aeruginosa ATCC 27853 [2] is reported as “bacteriostatic killing”. Besides, the “Time to reach bactericidal killing, antibiotic alone” value with P. aeruginosa ATCC 27853 [2] turned out to be 1 h. In addition, the “Frequency of Resistance” value is 3.4 × 10^−6 in the test on P. aeruginosa (P. aeruginosa ATCC 27853); 6.7 × 10^−6 in the test on P. aeruginosa (P. aeruginosa COR-002); 3.2 × 10^−6 in the test on P. aeruginosa (P. aeruginosa COR-003); 2.6 × 10^−6 in the test on P. aeruginosa (P. aeruginosa COR-013); 5.0 × 10^−6 in the test on P. aeruginosa (P. aeruginosa COR-014). Moreover, the “Fold Increase in MIC after a single exposure to antibiotic” value came to 1 in the test on P. aeruginosa (setting [3]); 1 in the test with P. aeruginosa (setting [4]); 2 in the test on P. aeruginosa (setting [5]); 8 in the test on P. aeruginosa (setting [6]); 16 with P. aeruginosa (setting [7]). The “increase in MIC of mutants after a single exposure” value in the test on P. aeruginosa (range over the P. aeruginosa mutants) is recorded as 2-16 fold.

Regarding `C[C@@H]1O[C@@H]1P(=O)(O)O` [Fosfomycin], the “MBC/MIC E. coli” value in the test on E. coli ATCC 25922 is given as 8. The “MBC/MIC P. aeruginosa” value against P. aeruginosa ATCC 27853 [1] is “≧8”; with P. aeruginosa ATCC 27853 [1] (listed as fosfomycin) it was no less than 8. Moreover, in the test with S. aureus ATCC 29213, the “MBC/MIC S. aureus” value is 1. Besides, the “killing in time-kill curves” value in the test on P. aeruginosa ATCC 27853 [2] is recorded as “bacteriostatic killing”. The “Time to reach bactericidal killing, antibiotic alone” value in the test on P. aeruginosa ATCC 27853 [2] is listed as “not bactericidal”. Moreover, the “Frequency of Resistance” value was 4.1 × 10^−5 in the test with P. aeruginosa (P. aeruginosa ATCC 27853); 1.4 × 10^−3 in the test with P. aeruginosa (P. aeruginosa COR-002); 5.5 × 10^−4 in the test on P. aeruginosa (P. aeruginosa COR-003); 6.4 × 10^−3 with P. aeruginosa (P. aeruginosa COR-013); 1.5 × 10^−5 in the test on P. aeruginosa (P. aeruginosa COR-014). Moreover, the “Fold Increase in MIC after a single exposure to antibiotic” value was 128 with P. aeruginosa (setting [3]); greater than 256 in the test on P. aeruginosa (setting [4]); greater than 256 in the test with P. aeruginosa (setting [5]); greater than 64 with P. aeruginosa (setting [6]); greater than 512 in the test on P. aeruginosa (setting [7]).
